Patent publication US8080580B2, “Dioxa-bicyclo[3.2.1]octane-2,3,4-triol derivatives” (Pfizer Inc., priority 2008, dated 2011)
“And” between values parts separate entries of the source, which are not always exact repeats. Equal values may be shown once.

Columns and labels:
hSGLT1 = molecular target: T1, hSGLT1 (Homo sapiens, UniProt P13866); test: SGLT1 functional assay: hSGLT1 IC50 (selectivity counter-screen to the SGLT2 AMG uptake assay); type: cell-based; settings: individual runs (Run No.)
T1 sequence (P13866 1-664): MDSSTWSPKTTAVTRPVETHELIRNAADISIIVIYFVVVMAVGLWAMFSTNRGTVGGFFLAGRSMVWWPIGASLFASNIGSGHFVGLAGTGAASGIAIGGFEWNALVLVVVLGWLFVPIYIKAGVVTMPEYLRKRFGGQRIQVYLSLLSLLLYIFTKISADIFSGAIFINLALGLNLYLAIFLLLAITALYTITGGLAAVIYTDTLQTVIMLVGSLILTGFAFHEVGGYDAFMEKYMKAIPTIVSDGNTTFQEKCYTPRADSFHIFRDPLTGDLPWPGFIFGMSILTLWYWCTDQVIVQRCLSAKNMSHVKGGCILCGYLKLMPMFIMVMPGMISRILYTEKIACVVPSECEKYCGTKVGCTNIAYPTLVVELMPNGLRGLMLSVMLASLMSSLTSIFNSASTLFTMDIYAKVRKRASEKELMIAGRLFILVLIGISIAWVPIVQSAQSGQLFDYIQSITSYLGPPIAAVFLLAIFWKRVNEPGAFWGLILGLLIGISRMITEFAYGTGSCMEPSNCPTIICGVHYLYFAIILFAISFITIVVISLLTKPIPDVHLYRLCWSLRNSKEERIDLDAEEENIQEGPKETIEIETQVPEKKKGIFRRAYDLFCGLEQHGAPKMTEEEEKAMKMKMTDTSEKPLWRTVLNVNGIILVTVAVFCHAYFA

human SGLT2 = molecular target: T2, human SGLT2 (Homo sapiens, UniProt P31639); test: SGLT2 functional assay: inhibition of AMG uptake in CHO-FlpIn cells stably expressing human SGLT2; type: cell-based; settings: individual runs (Run No.), read-out: hSGLT2 IC50
T2 construct: expressed in transfected cells; host or cells: CHO-FlpIn (Invitrogen)
T2 sequence (P31639 1-672): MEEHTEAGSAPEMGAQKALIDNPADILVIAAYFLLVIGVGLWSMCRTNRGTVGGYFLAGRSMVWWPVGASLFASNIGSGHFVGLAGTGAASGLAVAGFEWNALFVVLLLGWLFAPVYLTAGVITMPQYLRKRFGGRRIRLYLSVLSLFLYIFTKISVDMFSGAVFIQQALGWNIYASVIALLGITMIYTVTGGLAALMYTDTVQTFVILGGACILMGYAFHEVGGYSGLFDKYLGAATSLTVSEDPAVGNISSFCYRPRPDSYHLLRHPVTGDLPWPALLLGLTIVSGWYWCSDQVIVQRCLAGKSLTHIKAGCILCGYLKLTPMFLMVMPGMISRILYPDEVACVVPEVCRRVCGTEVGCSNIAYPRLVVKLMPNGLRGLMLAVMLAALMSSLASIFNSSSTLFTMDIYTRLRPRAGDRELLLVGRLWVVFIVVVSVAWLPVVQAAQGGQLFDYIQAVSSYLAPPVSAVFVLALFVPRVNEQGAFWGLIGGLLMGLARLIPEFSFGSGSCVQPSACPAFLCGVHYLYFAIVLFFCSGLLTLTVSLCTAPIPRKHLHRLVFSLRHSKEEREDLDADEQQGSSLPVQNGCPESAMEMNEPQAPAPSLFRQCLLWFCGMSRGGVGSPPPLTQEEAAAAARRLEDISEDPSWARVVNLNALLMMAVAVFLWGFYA
Text: The SGLT2 functional assay was designed to detect the inhibition of methyl-alpha-D glucopyranoside (AMG—a non-metabolizable form of glucose) uptake via the SGLT2 transporter. The SGLT2 transporter recovers glucose from the proximal tubules of the kidney; its inhibition results in sugar wasted in the urine. The positive control compound, Phlorizin, is a known inhibitor of glucose uptake for SGLT2 and was used for comparing the high percent effect of SGLT2 inhibition of the test compounds.
CHO-FlpIn (Invitrogen, Carlsbad, Calif.) cells stably expressing human SGLT2 (pcDNA5/FRT) were plated in Iso-TC 96 well plates (Perkin Elmer, Waltham, Mass.) at a density of 100,000 cells/well in 100 microL of growth media (1:1 F-12/DMEM media (Gibco, Carlsbad, Calif.), 10% FBS (Sigma, St. Louis Mo.), 1× Pen/Strep (Gibco, Carlsbad, Calif.), 600 microg/mL Hygromycin (Invitrogen, Carlsbad, Calif.)). Prior to treating with test compound, confluent cells were serum starved for 2 hours at 37° C. in 1:1 F-12/DMEM media, replacing with fresh F-12/DMEM media after 1 hour. […] Cell plates were then incubated for 3 hours at 37° C. for AMG uptake.

[1] = Pharmacokinetic testing in rats (IV or PO); type: in vivo; settings: rat, IV, 2 mg/kg
Procedure: Examples 1A, 2A, 4A, 12A, and 14A were tested in rats to assess pharmacokinetic parameters including maximum concentration (Cmax), area under the plasma concentration time curve (AUC), clearance (CL), steady state volume of distribution (Vss), half life (t1/2), and bioavailability (F). Male Sprague Dawley rats (˜300 g) were used. Rats received compound by intravenous (IV) or oral gavage (PO) administration and the doses tested including vehicle to formulate dosing solutions are listed in Table 5.
Following IV or PO administration, 0.2 mL blood was sampled from the jugular vein at various timepoints (Table 5). Twenty microL aliquots of plasma samples and standards were subjected to protein precipitation with acetonitrile containing an internal standard. Samples were vortexed and centrifuged to obtain supernatant which was analyzed by LC-MS/MS. Analyst (Version 1.4.1) was used to measure peak areas and peak area ratios of analyte to internal standard were calculated. LC-MS/MS conditions are as follows: Mass Spectrometer+Source Type was Sciex API 4000−Turbo Spray; HPLC pump was Shimadzu; Autosampler was CTC PAL Autosampler; Injection volume was 3.0 to 10 microL; A gradient was used with mobile phase A: 10 mM ammonium acetate and 1% Isopropyl alcohol in water; B: Acetonitrile; Flowrate 0.300 mL per minute (Column 2.0×30 mm 5 microm LUNA C18 column (phenomenex)). Detection mode was negative.
A calibration curve was constructed from the peak area ratios of the standards to the internal standard by applying a weighted linear (1/x or 1/x2) regression. The dynamic range of the standard curve was 5.00 ng/mL to 5000 ng/mL.
Pharmacokinetic parameters were determined from individual animal data using non-compartmental analysis in Watson (version 7.2). Concentrations below the limit of quantitation (BLQ) were recorded as 0 ng/mL for use in calculations.
The following calculations were used: AUC(0−τ)=Determined using the linear trapezoidal method AUC(0−□)=AUC(0−τ) plus extrapolated area determined by dividing plasma concentration at τ by the slope of the terminal log-linear phase CL=Dose/AUC(0−∞) Vdss=CL×MRT Cmax=Recorded directly from plasma concentration time curve Tmax=Recorded directly from plasma concentration time curve t½=ln(0.5)/slope of the terminal log-linear phase F %=AUC(0−∞)PO per dose/AUC(0−∞)IV per dose C(0)=Extrapolated by linear regression from the apparent distribution phase following IV administration MRT=AUMC(AUC(0−∞)/AUC(0−∞)

IC50 (hSGLT1): 0.543 µM and 0.397 µM and 0.55 µM and 0.757 µM and 0.523 µM and 0.672 µM and 0.38 µM | IC50 (human SGLT2): 0.000479 µM and 0.000972 µM and 0.00139 µM and 0.000811 µM and 0.000602 µM and 0.000588 µM and 0.00135 µM | AUC(0-inf) ([1]; male, Sprague Dawley, plasma): 1410 ng·h/mL | half-life ([1]; male, Sprague Dawley, plasma): 1.58 h | CL [1]: 23.8 mL/min/kg | Vss [1]: 1.82 L/kg
Structure (SMILES): COc1ccc(Cc2cc([C@]34OC[C@](CO)(O3)[C@@H](O)[C@H](O)[C@H]4O)ccc2Cl)cc1 [Example 3A, (1S,2S,3S,4R,5S)-5-[4-chloro-3-(4-methoxy-benzyl)-phenyl]-1-hydroxymethyl-6,8-dioxa-bicyclo[3.2.1]octane-2,3,4-triol]
